Results from US20080248008A1, “Inhibitors of Protein Kinase a Anchoring” (priority 2004, published 2008).

Columns and labels:
[1] = system: Lck-PY505; assay: Lck-PY505 level in lipid rafts of forskolin-stimulated T cells; assay type: cell-based, human; conditions: 25 μM, 12 hours, n=3
Experimental: Antibodies. RI or RII were immunoprecipitated with polyclonal antibodies against human RI or human RII at a 3 μg/ml dilution (Santa Cruz Biotechnology). MEME3 or scrambled peptide was immunoprecipitated with 1.5 μl of anti-GFP antiserum (Invitrogen). Monoclonal (Transduction laboratories) or polyclonal antibodies (Santa Cruz Biotechnology) against human RIα and RIIα were used at a 1 μg ml^−1 or 0.5 μg ml^−1 ilution for Western blotting. Polyclonal antibodies against human Cα (Santa Cruz Biotechnology) and LAT (Upstate Biotechnology) were used at a 0.4 μg ml^−1 and a 1 μg ml^−1 dilution for Western blotting, respectively. Polyclonal antibodies against LckPY505 (Cell Signaling) were used at a 1:1000 dilution and polyclonal antibody raised towards PS364 in Csk were used as previously described (Yaqub et al., Biochem. J., 372: p 271-8, 2003). Polyclonal antibodies against StAR (Affinity BioReagents) were used at 1 μg ml^−1. […]
Peripheral blood T cells were incubated in the absence (FIG. 20, A) or presence of 25 μM MEME3-Arg11 (B) or 25 μM SM3-Arg11 (C) for 12 hours and stimulated with forskolin to activate the PKA-Csk inhibitory pathway. […] Next, fractions were analysed by 10% PAGE, blotting onto a PVDF membrane and immunoblotting using phosphospecific antibodies to Lck-PY505 (FIG. 20, panels A-C).

[2] = target: T1, PKA type I in lipid rafts of human peripheral blood T cells (Homo sapiens, UniProt P10644); assay: PKA type I content of lipid rafts from human T cells (immunoblot densitometry); assay type: cell-based; conditions: n=4; for reduction of PKA type I in lipid rafts: 12 hours
T1 construct: endogenous in cells; host or cells: human peripheral blood T cells
Experimental: Lipid Raft Purification. Isolation of lipid rafts or glycolipid-enriched membrane microdomains was performed as described in detail elsewhere (Zhang, W. et al., 1998, Immunity 9:239-246). In brief, cells were homogenized in 1 ml ice-cold lysis buffer (50 mM Hepes, pH 7.4, 100 mM NaCl, 5 mM EDTA, […], 10 mM sodium pyrophosphate, 1 mM Na3VO4, 50 mM NaF, 1 mM PMSF, and protease inhibitors) by 10 pestle strokes in a Dounce homogenizer, loaded at the bottom of a 40-5% sucrose gradient and centrifuged at 200,000 g for 5 or 20 h. 80 μl or 0.4-ml fractions were collected from the top. The fractions were analysed by immunoblot analysis. LAT was used as a marker for lipid raft fractions.
Isolation of T cells. Human peripheral blood T cells were purified by negative selection (95-98% pure) as described (Aandahl E M et al., 1998, FASEB J. 12:855-62). Lipid Raft Purification. Isolation of lipid rafts or glycosphingolipid-enriched membrane microdomains from T cells was performed by small scale ultracentrifugation. In brief, 20 million cells were homogenized in 250 μl ice-cold lysis buffer (50 mM Hepes, pH 7.4, 100 mM NaCl, 5 mM EDTA, […], 10 mM sodium pyrophosphate, 1 mM Na3VO4, 50 mM NaF, 1 mM PMSF, and protease inhibitors) by 10 pestle strokes in a Dounce homogenizer, loaded at the bottom of a 40 to 50 sucrose gradient and centrifuged at 200,000 g for 5 h. 80 μl fractions were collected from the top. The fractions were analysed by immunoblot analysis. LAT was used as a marker for lipid raft fractions. […]
Lipid rafts were purified from isolated human peripheral blood T cells treated with MEME3-Arg11 or SM3-Arg11 for 12 hours, followed by 10% PAGE and blotting onto a PVDF membrane and immunoblotting (FIG. 18, left panel). The PKA content was measured by densitometry of immunoblots (n=4). […] The very weak signal observed after immunoblotting using antibodies against RIIα (data not shown) was measured by densitometry of the autoradiogram. […]

[3] = target: T2, RIα (Bos taurus, UniProt P00514); assay: Fluorescence polarization, dissociation constant for RI; assay type: binding, bovine; conditions: qualitative
T2 construct: made in house; host or cells: E. coli BL21 (B121 [sic])
T2 sequence (P00514 whole entry): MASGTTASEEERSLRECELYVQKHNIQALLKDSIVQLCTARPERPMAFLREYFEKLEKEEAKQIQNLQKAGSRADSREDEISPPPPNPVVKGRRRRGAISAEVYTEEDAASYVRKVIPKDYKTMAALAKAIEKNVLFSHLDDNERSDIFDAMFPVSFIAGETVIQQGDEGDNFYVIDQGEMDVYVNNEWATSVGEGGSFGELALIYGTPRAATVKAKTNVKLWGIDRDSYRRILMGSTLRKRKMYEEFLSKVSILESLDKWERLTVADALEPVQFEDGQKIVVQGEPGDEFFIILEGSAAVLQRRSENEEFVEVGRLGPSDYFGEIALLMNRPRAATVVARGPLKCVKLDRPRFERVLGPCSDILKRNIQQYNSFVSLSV
Experimental: Fluorescence Polarization. FITC-labeled peptides (SynPep, San Diego) that were used for fluorescence polarization studies included MEME3 (LEQYANQLADQIIKEATEK(5-Carboxyfluorescein)-CONH2) and MEME3 scrambled peptide (IEKELAQQYQNADAITLEK(5-Carboxyfluorescein)-CONH2). Peptides (0.5 nM for RI experiments and 1 nM for RII experiments) were suspended to working dilutions in phosphate-buffered saline containing 5 μg/μl BSA, pH 7.0. Increasing concentrations of recombinant bovine RI wt or recombinant murine RII were added to a PBS solution and mixed with each FITC-labeled peptide. Each sample was incubated for 2.5 hours. Fluorescence polarization was measured on a Beacon 2000 (Panvera, Madison, Wis.), following the manufacturer's instructions. Saturation binding curves were generated with PRISM graphing software (GraphPad, San Diego). Dissociation constants (Kd) were calculated from the nonlinear regression curve from averages of minimum three individual experiments.
Protein expression and purification. Human RI, Bovine RI and N-terminal deletions thereof or murine RII was expressed in E. coli B121 by IPTG induction. The RI containing pellet was incubated in lysis buffer (10 mM MOPS, pH 6.5, 100 mM NaCl, 10 μM DTT added protease inhibitors) and sonicated (Branson Sonifier 250) for 1 minute in three intervals at 0° C. […]

Substance | reduction of LckPY505 levels compared to SM3-Arg11 treated cells [1] [%] | reduction of PKA type I in lipid rafts ([2]; 10 μM) [%] | reduction of RI and C concentration in lipid rafts compared to SM3 ([2]; 10 μM, primary human T cells) [%] | reduction of PKA type I in lipid rafts ([2]; 25 μM) [%] | interaction with RI subunit [3] | interaction with RI subunit ([3]; listed as control peptide)
LEQYANQLADQIIKEATERRRRRRRRRrr [MEME3-Arg11] | 60 | 80 | 80 | 90 | – | –
IEKELAQQYQNADAITLE [SM3, scrambled MEME3 negative control peptide, reference compound] | – | – | – | – | No RIα binding | did not interact with either R subunit
